What was measured:
[1] = biological target: T1, Epidermal growth factor receptor (Homo sapiens, UniProt P00533); test: Inhibition of EGFR autophosphorylation in DiFi cells by ELISA; assay type: functional, cell-based
[2] = biological target: T1, Epidermal growth factor receptor; test: Inhibition of EGFR measured as pGAT-biotin peptide phosphorylation in presence of 2.0 uM ATP by HTRF assay; assay type: functional
[3] = biological target: Vascular endothelial growth factor receptor 2 (Homo sapiens, UniProt P35968)
Vascular endothelial growth factor receptor 2, sequence (P35968 whole entry): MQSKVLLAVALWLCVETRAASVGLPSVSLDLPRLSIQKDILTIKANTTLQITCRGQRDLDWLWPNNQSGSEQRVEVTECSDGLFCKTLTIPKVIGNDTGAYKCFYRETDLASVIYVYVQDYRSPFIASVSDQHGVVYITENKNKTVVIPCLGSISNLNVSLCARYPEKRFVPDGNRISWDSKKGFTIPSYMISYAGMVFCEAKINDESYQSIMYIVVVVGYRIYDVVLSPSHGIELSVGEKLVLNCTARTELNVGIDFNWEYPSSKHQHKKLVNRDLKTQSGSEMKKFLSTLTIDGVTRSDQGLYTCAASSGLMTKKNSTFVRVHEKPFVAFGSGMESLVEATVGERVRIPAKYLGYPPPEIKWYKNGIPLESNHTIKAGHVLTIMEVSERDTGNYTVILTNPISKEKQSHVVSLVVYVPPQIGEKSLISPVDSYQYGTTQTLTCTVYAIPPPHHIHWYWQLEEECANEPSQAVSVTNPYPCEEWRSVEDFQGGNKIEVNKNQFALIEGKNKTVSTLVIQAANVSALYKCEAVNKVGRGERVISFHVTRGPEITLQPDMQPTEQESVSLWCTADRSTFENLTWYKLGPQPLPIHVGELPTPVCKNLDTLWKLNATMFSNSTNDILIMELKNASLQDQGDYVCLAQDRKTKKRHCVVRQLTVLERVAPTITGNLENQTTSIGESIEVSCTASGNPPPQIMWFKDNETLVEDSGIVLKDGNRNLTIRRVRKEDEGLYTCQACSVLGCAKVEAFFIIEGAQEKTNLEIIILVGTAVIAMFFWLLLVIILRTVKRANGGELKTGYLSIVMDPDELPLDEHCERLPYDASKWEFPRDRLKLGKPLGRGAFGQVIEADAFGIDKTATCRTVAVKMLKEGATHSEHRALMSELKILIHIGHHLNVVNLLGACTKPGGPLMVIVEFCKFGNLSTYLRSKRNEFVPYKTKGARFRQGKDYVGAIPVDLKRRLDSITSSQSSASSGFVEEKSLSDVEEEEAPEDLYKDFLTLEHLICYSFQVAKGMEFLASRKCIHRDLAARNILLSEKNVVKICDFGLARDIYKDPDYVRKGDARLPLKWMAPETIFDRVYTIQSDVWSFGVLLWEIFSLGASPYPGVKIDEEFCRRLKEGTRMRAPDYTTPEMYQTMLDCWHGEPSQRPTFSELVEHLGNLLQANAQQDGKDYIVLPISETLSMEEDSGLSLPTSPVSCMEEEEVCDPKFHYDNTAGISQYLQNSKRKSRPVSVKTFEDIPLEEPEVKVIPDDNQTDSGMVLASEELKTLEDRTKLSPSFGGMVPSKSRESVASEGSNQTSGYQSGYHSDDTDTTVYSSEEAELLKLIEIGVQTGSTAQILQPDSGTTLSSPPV
Description: Inhibition of KDR measured as pGAT-biotin peptide phosphorylation by HTRF assay

T1 sequence (P00533 whole entry): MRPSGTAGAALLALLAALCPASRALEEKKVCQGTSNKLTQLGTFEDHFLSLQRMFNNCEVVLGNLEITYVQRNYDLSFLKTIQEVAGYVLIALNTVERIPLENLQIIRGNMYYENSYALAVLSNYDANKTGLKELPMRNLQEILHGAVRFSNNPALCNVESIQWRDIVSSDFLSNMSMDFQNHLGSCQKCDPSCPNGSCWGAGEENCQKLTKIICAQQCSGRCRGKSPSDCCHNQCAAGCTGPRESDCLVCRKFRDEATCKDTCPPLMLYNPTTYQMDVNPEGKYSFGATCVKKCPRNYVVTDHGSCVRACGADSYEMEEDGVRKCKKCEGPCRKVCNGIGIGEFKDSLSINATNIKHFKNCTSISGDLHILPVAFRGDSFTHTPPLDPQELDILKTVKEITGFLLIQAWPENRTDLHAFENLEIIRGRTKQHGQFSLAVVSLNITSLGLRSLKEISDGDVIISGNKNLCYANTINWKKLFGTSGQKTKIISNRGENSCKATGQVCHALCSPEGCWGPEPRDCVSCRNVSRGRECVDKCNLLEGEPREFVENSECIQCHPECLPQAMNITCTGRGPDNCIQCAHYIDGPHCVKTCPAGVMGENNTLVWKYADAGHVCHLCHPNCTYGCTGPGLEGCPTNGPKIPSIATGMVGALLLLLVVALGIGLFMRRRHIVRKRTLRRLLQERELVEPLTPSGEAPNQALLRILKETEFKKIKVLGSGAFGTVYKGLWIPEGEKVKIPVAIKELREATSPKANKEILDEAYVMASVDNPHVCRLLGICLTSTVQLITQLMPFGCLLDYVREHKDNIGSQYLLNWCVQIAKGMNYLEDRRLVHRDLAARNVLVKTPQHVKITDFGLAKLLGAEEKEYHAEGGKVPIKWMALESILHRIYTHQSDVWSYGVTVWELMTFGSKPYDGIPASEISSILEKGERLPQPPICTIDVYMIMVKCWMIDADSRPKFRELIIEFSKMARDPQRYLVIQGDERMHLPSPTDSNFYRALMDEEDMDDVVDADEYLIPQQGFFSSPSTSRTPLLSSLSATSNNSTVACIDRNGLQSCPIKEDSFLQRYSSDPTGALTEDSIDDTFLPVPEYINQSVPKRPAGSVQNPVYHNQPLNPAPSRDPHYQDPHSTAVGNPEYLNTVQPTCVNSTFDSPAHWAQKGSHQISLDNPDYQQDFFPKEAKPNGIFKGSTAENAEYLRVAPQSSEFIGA

Row | IC50 [1] | IC50 [2] | IC50 [3] | SMILES
1 | 0.7 µM |  |  | COc1cc2c(cc1OC)Oc1ncnc(Nc3ccc(F)c(Cl)c3)c1NC2
2 |  | > 100 µM |  | COc1cc2c(cc1OC)Sc1ncnc(Nc3ccc4ncsc4c3)c1NC2
3 |  | 4.6 µM |  | COc1cc2c(cc1OC)Oc1ncnc(Oc3cccc(Cl)c3F)c1NC2
4 |  | 24.6 µM |  | COc1cc2c(cc1OC)Sc1nc(C)nc(Nc3ccc4c[nH]nc4c3)c1NC2
5 |  | 14.5 µM |  | COc1cc2c(cc1OC)Sc1nc(C)nc(Nc3ccc4[nH]cnc4c3)c1NC2
6 |  | 15.2 µM |  | COc1cc2c(cc1OC)Sc1nc(C)nc(Nc3ccc4ncsc4c3)c1NC2
7 |  | 45.9 µM |  | COc1cc2c(cc1OC)Sc1nc(C)nc(Nc3ccc(F)c(Cl)c3)c1NC2
8 | 3.9 µM | 1.1 µM |  | COc1cc2c(cc1OC)Oc1ncnc(Nc3cc(Cl)ccc3F)c1NC2
9 | 1.2 µM | 1.3 µM | > 10 µM | COc1cc2c(cc1OC)Oc1ncnc(Sc3cccc(Br)c3)c1NC2
10 |  | 17 µM |  | COc1cc2c(cc1OC)Sc1nc(C)nc(Nc3ccc4ccccc4c3)c1NC2
11 | 4.6 µM | 0.3 µM |  | COc1cc2c(cc1OC)Oc1ncnc(Nc3cccc(Cl)c3F)c1NC2
12 |  | 62.9 µM |  | COc1cc2c(cc1OC)Sc1ncnc(Nc3cccc(Cl)c3F)c1NC2
13 |  | 1.5 µM |  | COc1cc2c(cc1OC)Nc1ncnc(Nc3cccc(Br)c3)c1NC2
14 | 0.9 µM | 3.2 µM |  | C#Cc1cccc(Nc2ncnc3c2NCc2cc(OC)c(OC)cc2O3)c1
15 | 0.9 µM | 0.2 µM | 2 µM | COc1cc2c(cc1OC)Nc1ncnc(NCc3ccccc3)c1NC2
16 | 2.4 µM | 1 µM | > 10 µM | COc1cc2c(cc1OC)Oc1ncnc(Sc3cccc(Cl)c3)c1NC2
17 |  | > 100 µM |  | COc1cc2c(cc1OC)Sc1ncnc(N(C)c3cccc(Br)c3)c1NC2
18 |  | 8.2 µM |  | COc1cc2c(cc1OC)Sc1ncnc(Nc3ccc(F)c(Cl)c3)c1NC2
19 |  | 1.2 µM | > 10 µM | COc1cc2c(cc1OC)Oc1ncnc(Nc3ccc4c[nH]nc4c3)c1NC2
20 |  | 21.7 µM |  | COc1cc2c(cc1OC)Sc1ncnc(Oc3cccc(Br)c3)c1NC2
21 | 2.3 µM | 0.5 µM | > 10 µM | COc1cc2c(cc1OC)Oc1ncnc(Nc3ccc4ccccc4c3)c1NC2
22 | 11.7 µM | 0.8 µM | 2 µM | COc1cccc(CNc2ncnc3c2NCc2cc(OC)c(OC)cc2N3)c1

Row | IC50 [1] | IC50 [2] | IC50 [3] | SMILES
23 | 1.8 µM | 0.7 µM | > 10 µM | COc1cc2c(cc1OC)Oc1ncnc(Oc3cccc(Br)c3)c1NC2
24 | 1.6 µM | 0.3 µM | 2 µM | COc1cc2c(cc1OC)Nc1ncnc(NCc3ccc(F)c(Cl)c3)c1NC2
25 |  | 5.6 µM | > 10 µM | COc1cc2c(cc1OC)Oc1ncnc(Nc3ccc4ncsc4c3)c1NC2
26 | 0.5 µM | 0.15 µM | 2 µM | COc1cc2c(cc1OC)Nc1ncnc(N[C@H](C)c3ccccc3)c1NC2
27 | 0.5 µM | 0.3 µM | > 10 µM | COc1cc2c(cc1OC)Oc1ncnc(Nc3cccc(Br)c3)c1NC2
28 |  | > 100 µM |  | COc1cc2c(cc1OC)Sc1nc(C)nc(Nc3ccc(C)c(Br)c3)c1NC2
29 |  | 16.2 µM |  | COc1cc2c(cc1OC)Sc1nc(C)nc(Nc3ccc4c(c3)CN=N4)c1NC2
30 | 6.1 µM | 1.2 µM |  | COc1cc2c(cc1OC)Oc1ncnc(Oc3cccc(Br)c3)c1N(C)C2
31 |  | 2.9 µM |  | COc1cc2c(cc1OC)Sc1ncnc(Sc3cccc(Cl)c3)c1NC2
32 | > 100 µM | 8.7 µM | > 10 µM | COc1cc2c(cc1OC)Oc1ncnc(Nc3ccc(Br)cc3)c1NC2
33 |  | 19.3 µM |  | COc1cc2c(cc1OC)Sc1ncnc(Oc3cccc(Cl)c3F)c1NC2
34 |  | 14.1 µM |  | COc1cc2c(cc1OC)Sc1ncnc(Nc3ccc4c[nH]nc4c3)c1NC2
35 |  | > 100 µM | > 10 µM | COc1cc2c(cc1OC)Oc1nc(C)nc(Nc3cccc(Cl)c3F)c1NC2
36 |  | > 100 µM |  | COc1cc2c(cc1OC)Sc1nc(C)nc(Nc3ccc(Cl)c(C)c3)c1NC2
37 | 4.4 µM | 7.4 µM | > 10 µM | COc1cc2c(cc1OC)Oc1ncnc(Nc3cccc(C)c3)c1NC2
38 |  | 1.6 µM |  | COc1cc2c(cc1OC)Sc1ncnc(Sc3cccc(Br)c3)c1NC2
39 |  | > 100 µM |  | COc1cc2c(cc1OC)Sc1nc(C)nc(Nc3cccc(Cl)c3F)c1NC2
40 | 7.6 µM | 7.1 µM | > 10 µM | COc1cc2c(cc1OC)Oc1ncnc(Nc3ccc(F)cc3)c1NC2
41 |  | 27 µM |  | COc1cc2c(cc1OC)Sc1ncnc(N(C)c3cccc(Cl)c3)c1NC2
42 |  | 30.7 µM |  | COc1cc2c(cc1OC)Sc1nc(C)nc(Nc3cccc(Br)c3)c1NC2
43 |  | 10.8 µM | > 10 µM | COc1cc2c(cc1OC)Oc1ncnc(Oc3ccc(F)c(Cl)c3)c1N(C)C2
44 |  | 5.9 µM |  | COc1cc2c(cc1OC)Sc1ncnc(Nc3cccc(Br)c3)c1NC2

Reference: ChEMBL document CHEMBL1149491, “Novel tricyclic azepine derivatives: Biological evaluation of pyrimido[4,5-b]-1,4-benzoxazepines, thiazepines, and diazepines as inhibitors of the epidermal growth factor receptor tyrosine kinase” (Bioorg Med Chem Lett, 2006)
